From article PMC10823514, “Target Identification of a Class of Pyrazolone Protein Aggregation Inhibitor Therapeutics for Amyotrophic Lateral Sclerosis” (ACS Central Science, 2023)

Assays:
14-3-3-E = target: T1, 14-3-3-E (Rattus norvegicus, UniProt P62260); assay: Cellular thermal shift assay (CETSA) in PC12^G93A cell lysate; format: binding; conditions: n = 3
T1 construct: isothermal dose–response (ITDR) CETSA curve of 14-3-3-E at 63 °C (B) in PC12^G93A cell lysate; endogenous in cells; host or cells: PC12-SOD1^G93A YFP cell lysate (freeze/thaw)
T1 sequence (P62260 1-255): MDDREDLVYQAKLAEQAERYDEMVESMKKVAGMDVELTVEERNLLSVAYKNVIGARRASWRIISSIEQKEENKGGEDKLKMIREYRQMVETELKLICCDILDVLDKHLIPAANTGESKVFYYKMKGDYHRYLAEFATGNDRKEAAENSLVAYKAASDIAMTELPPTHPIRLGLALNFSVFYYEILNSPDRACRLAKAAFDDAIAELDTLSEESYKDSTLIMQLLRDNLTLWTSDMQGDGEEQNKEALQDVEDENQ
Procedure: Before the experiments were initiated, PC12-SOD1^G93A YFP cells were maintained in DMEM high-glucose media supplemented with 10% horse serum, 5% Tet-approved FBS, 1% Pen-strep, 1X L-glutamine, 200 μg/mL hygromycin, and 100 μg/mL G418. On the day preceding the experiments, the cells were plated onto two separate 10 cm dishes at a concentration of 10 × 10^6 cells per 10 mL of the supplemented media. They were then incubated overnight at 37 °C in a CO2 incubator (5% CO2) until they achieved 90–95% confluency.
The cell medium was subsequently removed, and the cells were rinsed with 1X PBS before being detached using 1 mL of 1X trypsin. To this, 5 mL of 1X PBS solution was added, and the cells were then resuspended, transferred to two separate 15 mL conical tubes, and centrifuged at 1100 rpm for 3 min. The supernatant was discarded, and the cells were resuspended in 1 mL of 1X PBS containing a […] (EDTA-free) (Sigma-Aldrich, 1:100 v/v). […]
SDS PAGE was conducted using a 15-well Novex Bis-Tris 4–12% prepacked gel and 1X MES-SDS gel running buffer (comprising 50 mM MES, 50 mM Tris, 1 mM EDTA, and 0.1% SDS) at a constant voltage of […] over a duration of 2 h. […] These raw immunoblot images were analyzed by using ImageJ software. Data (expressed as relative band intensity %) were normalized relative to the samples that were incubated at the lowest temperature. […]

[1] = test system: 25 kDa covalently modified band in HAP1 cells; assay: Photoaffinity labeling with HAP1 wild-type and Hsp27 knockout cells; format: binding; conditions: 15 μM PRAPP
Text: First, we conducted photoaffinity labeling studies with wild-type (WT) HAP1 cells to verify the existence of the 25 kDa covalent modification that we observed in PC12 cells.
Figure 7 Photoaffinity Labeling Experiments with HAP1 cells. […] The nonspecific background modifications remain unchanged with increasing concentration of P3, further confirming the 25 kDa covalently modified band as a true target; (B) comparison of the photoaffinity labeling experiments with HAP1 wild-type (WT) cells and Hsp27 knockout (KO) cells at 15 μM PRAPP concentration.

PC12 SOD1^G93A cells = assay: Neuroprotection against MG-132-induced toxicity in PC12 cells expressing mutant SOD1^G93A (calcein-AM viability); format: cell-based; conditions: Rattus norvegicus, PC-12, read-out: EC50 to ameliorate MG132-induced protein aggregation and cellular toxicity
Procedure: With this information in hand, we implemented a phenotypic drug discovery approach to identify a novel therapeutic for treating ALS. The study employed a rat PC12 cell-based assay that expresses SOD1^G93A mutation for screening a chemical library of more than 50,000 compounds to identify promising hits (Figure 1 compounds 3 and 4). The hits are based on attenuating proteasome inhibitor MG-132-induced SOD1^G93A cellular toxicity.
Viability EC50 values were determined according to the previously reported assay procedure.[43] Briefly, PC12 cells were seeded at 15,000 cells/well in 96-well plates, and the medium was changed to remove the doxycycline 4 days prior to compound addition. Compounds were assayed in 12-point dose–response experiments to determine the potency and efficacy. The highest compound concentration tested was 32 μM, which was decreased by half with each subsequent dose. After a 24 h incubation with the analytes, MG-132 (400 nM) was added and the cells were incubated at 37 °C for 24 h. The cells were washed twice with PBS. Calcein-AM was added at a final concentration of 1 μM for 20 min at room temperature, and the fluorescence intensity was read in a POLARstar fluorescence plate reader (BMG). EC50 values were determined by standardizing fluorescent signal to DMSO treated controls. […] The presented data represent the mean average of duplicate experiments.

SMILES | CETSA melting curve: 14-3-3-E in the soluble fraction versus DMSO control (14-3-3-E; 500 μM P2, cell lysate, difference between 60 and 64 °C, maximum at 63 °C) | ITDR CETSA: relative band intensity of 14-3-3-E in the soluble fraction (14-3-3-E; 63 °C, increasing concentrations, cell lysate) | intensity of the 25 kDa covalently modified band in Hsp27 KO versus WT cells [1] | EC50 (PC12 SOD1^G93A cells) [nM]
O=c1cc(COc2cc(Cl)cc(Cl)c2)[nH][nH]1 [P2] | markedly reduced the presence of 14-3-3-E in the soluble fraction | clear decrease in the relative band intensity of 14-3-3-E | – | –
C#CCN(Cc1cc(=O)[nH][nH]1)Cc1c(F)c(F)c(N=[N+]=[N-])c(F)c1F [PRAPP, 5-(((4-Azido-2,3,5,6-tetrafluorobenzyl)(prop-2-yn-1-yl)amino)methyl)-1,2-dihydro-3H-pyrazol-3-one] | – | – | remains unchanged | 190
